Data taken from patent publication US20060063944A1, “Estrone derivatives and process for producing same” (CHUGAI SEIYAKU KABUSHIKI KAISHA, priority 2002, published 2006).

Legend:
[1] = AUC measurement in oral administration, test with mice; type: in vivo; settings: 30 mg/kg, 5% gum arabic suspension, plasma; for AUC∞: ICR mice; for AUC(0-inf): female, ICR, mouse, po
Experimental: (§1) The AUC of specified compounds in oral administration was measured by the following tests.
A 5% gum arabic suspension (10 ml/kg) of a test substance (30 mg/kg) was forcibly administered orally into ICR mice (female, 8-10 week old) by means of a mouse stomach probe and after the lapse of specified periods of time (15 minutes, 30 minutes, and 1, 2, 4, 6, 8, 24 and 48 hours), whole blood was taken from the abdominal large vein (n=3 for each time period). The concentration of the test substance in the sampled plasma was measured by HPLC (eluant: acetonitrile/water) and AUC was determined by moment analysis from the average plasma concentration for each time period. The test substances were compound 1, compound 2, compound 4 and compound 5. Two control compounds were used, one being the first component prepared in step 1 of Example 1 (control compound 2) and the other being the second component (control compound 1).

[2] = tested on: increase in the weight of the uterus induced by 17β-estradiol benzoate; test: Anti-estrogen activity in oral administration (suppression of estradiol-induced increase in uterus weight in ovariectomized mice); type: in vivo; settings: ovariectomized ICR mice, oral 10 mg/kg once a day for 3 days, 17β-estradiol benzoate 0.1 μg s.c.
Experimental: In the test, each of the test compounds and a control compound were suspended in a 5% gum arabic solution and administered to the mice orally in doses of 10 mg/kg on a once-a-day basis for 3 days. Twenty-four hours after the administration of the final dose, the test animals were slaughtered and the uterus was extracted and its weight was measured.

[3] = biological target: T1, intranuclear estrogen receptor (EgR) (Homo sapiens, UniProt P03372); test: Estrogen receptor downregulating activity (intranuclear EgR content in MCF-7); type: cell-based; settings: MCF-7 cells; for DC50: 2 days with compound, ER-EIA, read-out: IC50 (intranuclear EgR content)
T1 construct: endogenous in cells; host or cells: MCF-7 (ATCC)
Experimental: Tris(hydroxymethyl)aminomethane, dithiothreitol and glycerol were obtained from Nacalai Tesque. Protease inhibitor tablets were obtained from Boehringer Mannheim. Human breast cancer cell line MCF-7 was obtained from ATCC, fetal calf serum (FCS) from Hyclone, DMEM from Invitrogen, and PBS(−) from Nissui.
Tris-HCl buffer (1 mol/L, pH=7.4) was diluted 50-fold with distilled water to a concentration of 20 mmol/L (pH=7.4). To the diluted buffer, dithiothreitol and glycerol were added to give respective final concentrations of 1 mmol/L and 10%. Further, protease inhibitor tablets were added, with one tablet per 50 mL of buffer. The thus conditioned solution was used as a solubilizing buffer.
Samples for quantitating the intranuclear estrogen receptor (EgR) were prepared by the following procedure. MCF-7 cultivated in 5% FCS/DMEM was sown on 6-cm dishes at a concentration of 4×10^5 cells/dish and cultivated for 3 days; cultivation was continued for an additional 2 days in the presence of compound 1 or compound 2 at final concentrations of 1-100 nmol/L or in the presence of compound 4 at final concentrations of 1-1,000 nmol/L or compound 5 at final concentrations of 1-10,000 nmol/L. Thereafter, the cells were washed with PBS(−), mixed with the solubilizing buffer, subjected to two cycles of freezing at −80° C. and thawing at room temperature, and centrifuged at 4° C. for 10 minutes at 4000 rpm (centrifuge: TOMY, Model MX-150). To the precipitation, the solubilizing buffer containing 500 mmol/L of NaCl was added and the mixture was treated with a micro-tube mixer (TOMY, Model MT-360) at 4° C. for about 30 minutes. Following centrifugation at 4° C. for 30 minutes at 15,000 rpm (centrifuge: TOMY, Model MX-150), the supernatant was collected and stored at −80° C. as an extracted nuclear sample. The EgR content in the extracted nuclear sample was measured with an EgR assay kit (ER-EIA “ABBOT” of Dynapot).

[4] = AUC measurement in oral administration, test with monkeys; type: in vivo; settings: female, cynomolgus monkey, 3 mg/kg, PEG/water/ethanol solution, plasma
Experimental: as §1
A PEG/water/ethanol [8/4/3 (v/v)] solution (3 ml/kg) of a test substance (3 mg/kg) was administered orally into cynomolgus monkeys (female, 3-5 years old, 2.5-4 kg) through a catheter inserted from the nostrils into the stomach and about 1 ml of blood was taken over a period of 48 hours at specified time intervals (15 minutes, 30 minutes, and 1, 2, 4, 6, 8, 10, 24 and 48 hours). The concentration of the test substance in the sampled plasma was measured by use of LC/MS/MS (ESI, eluant: acetonitrile/water) and AUC was determined by moment analysis. The test substances were compound 1 and compound 4. The second component prepared in step 1 of Example 1 was used as control compound 1.

[5] = tested on: bone marrow derived osteoclast precursor cells; test: Differentiation of bone marrow derived osteoclast precursor cells into mature osteoclasts (TRAP staining); type: cell-based, ddY mice; settings: mean ± SD, n=3, 48-well plates
Experimental: Bone marrow cells separated from the vertebrae of ddY mice (male, 7-9 week old) were cultivated on cell culture plates for 3 days in the presence of a macrophage colony-stimulating factor (M-CSF, 10 ng/ml). The suspended cells were washed with PBS and removed whereas the cells adhering to the plates were used as osteoclast precursor cells. Following the addition of more M-CSF (10 ng/ml) and a soluble RANK ligand (sRANKL, 40 ng/ml), the precursors were cultivated for 3-4 days in order to induce the maturation of osteoclasts. Before this cultivation, either compound 1 or a solvent (ethanol) alone was added in order to see what effects they would have. The maturation of osteoclasts was evaluated by staining the cultivated cells with a tartrate resistant acid phosphatase (TRAP) and counting the number of trinuclear and higher TRAP stained cells. Table 1 and FIG. 1 show the mean and SD values for the experiment in which the number of mature osteoclasts that were produced per well in 48-well plates was evaluated for n=3.

breast cancer = settings: cited from earlier work

T1 sequence (P03372 whole entry): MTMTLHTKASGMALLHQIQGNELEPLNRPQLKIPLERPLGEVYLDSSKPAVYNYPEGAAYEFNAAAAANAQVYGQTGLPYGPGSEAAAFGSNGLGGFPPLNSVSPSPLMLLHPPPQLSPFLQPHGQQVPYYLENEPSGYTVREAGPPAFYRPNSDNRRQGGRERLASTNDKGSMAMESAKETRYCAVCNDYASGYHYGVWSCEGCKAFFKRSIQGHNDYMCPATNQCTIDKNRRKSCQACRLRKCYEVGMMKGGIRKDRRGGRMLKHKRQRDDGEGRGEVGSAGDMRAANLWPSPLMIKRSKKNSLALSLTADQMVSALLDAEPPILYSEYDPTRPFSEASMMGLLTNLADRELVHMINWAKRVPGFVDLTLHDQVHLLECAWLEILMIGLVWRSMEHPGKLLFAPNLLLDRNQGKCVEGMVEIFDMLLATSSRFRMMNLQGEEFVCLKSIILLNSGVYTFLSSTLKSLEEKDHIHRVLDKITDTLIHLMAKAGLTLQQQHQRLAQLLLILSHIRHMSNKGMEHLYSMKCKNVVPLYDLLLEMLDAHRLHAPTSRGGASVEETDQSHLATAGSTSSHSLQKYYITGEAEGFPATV

Row | SMILES | AUC∞ [1] [µg·h/mL] | Intranuclear EgR content (in words) [3] | DC50 [3] [nM] | AUC(0-inf) [4] [µg·h/mL] | other results
1 | C#C[C@]1(O)CCC2C3C(CC[C@@]21C)c1ccc(O)cc1C[C@H]3CCCCCCCCC(CCCC(F)(F)C(F)(F)C(F)(F)C(F)(F)F)C(=O)O (single isomer, unassigned) [Compound 5, 10-(3,17β-dihydroxy-17α-ethynyl-estra-1,3,5(10)-trien-7α-yl)-2-(4,4,5,5,6,6,7,7,7-nonafluoroheptyl)decanoic acid] | 661.00 | reduced the intranuclear EgR content in a dose-dependent manner | 100 |  | Percent suppression (%) of the increase in the weight of the uterus ([2]; 10 mg/kg): 96%
2 | C[C@]12CC[C@@H]3c4ccc(O)cc4C[C@@H](CCCCCCCCC(CCCC(F)(F)C(F)(F)C(F)(F)C(F)(F)F)C(=O)O)[C@H]3[C@@H]1CC[C@@H]2O (single isomer, unassigned) [Control compound 1, 10-(3,17β-dihydroxyestra-1,3,5(10)-trien-7α-yl)-2-(4,4,5,5,6,6,7,7,7-nonafluoroheptyl)decanoic acid, reference compound] |  |  |  | 0.42 | AUC(0-inf) [1]: 274 µg·h/mL
3 | C[C@]12CC[C@@H]3c4ccc(O)cc4C[C@@H](CCCCCCCCC(CCCC(F)(F)C(F)(F)C(F)(F)C(F)(F)F)C(=O)O)[C@H]3[C@@H]1CCC2=O (single isomer, unassigned) [Compound 2, 10-(3-hydroxy-17-oxo-estra-1,3,5(10)-trien-7α-yl)-2-(4,4,5,5,6,6,7,7,7-nonafluoroheptyl)decanoic acid] | 722.55 | reduced the intranuclear EgR content in a dose-dependent manner | 8.7 |  | 
4 | C[C@]12CC[C@@H]3c4ccc(O)cc4C[C@@H](CCCCCCCCC(CCCC(F)(F)C(F)(F)C(F)(F)C(F)(F)F)C(=O)O)[C@H]3[C@@H]1CCC2=O (single isomer, unassigned) [Compound 1, 10-(3-hydroxy-17-oxo-estra-1,3,5(10)-trien-7α-yl)-2-(4,4,5,5,6,6,7,7,7-nonafluoroheptyl)decanoic acid] |  | reduced the intranuclear EgR content in a dose-dependent manner | 8.4 | 2.42 | No. of mature osteoclasts per well ([5]; M-CSF + sRANKL + compound at 10^−4 mol/L): 0 ± 0; No. of mature osteoclasts per well ([5]; M-CSF + sRANKL + compound at 10^−5 mol/L): 34 ± 10; AUC(0-inf) [1]: 468 µg·h/mL; Percent suppression (%) of the increase in the weight of the uterus [2]: 96%
5 | C#C[C@]1(O)CCC2C3C(CC[C@@]21C)c1ccc(O)cc1C[C@H]3CCCCCCCCC(CCCC(F)(F)C(F)(F)C(F)(F)C(F)(F)F)C(=O)O (single isomer, unassigned) [Compound 4, 10-(3,17β-dihydroxy-17α-ethynyl-estra-1,3,5(10)-trien-7α-yl)-2-(4,4,5,5,6,6,7,7,7-nonafluoroheptyl)decanoic acid] | 202.10 | reduced the intranuclear EgR content in a dose-dependent manner | 14 | 3.8 | Percent suppression (%) of the increase in the weight of the uterus ([2]; 10 mg/kg): 94%
6 | C[C@]12C[C@H](CCCCCCCCC(CCCC(F)(F)C(F)(F)C(F)(F)C(F)(F)F)C(=O)O)[C@@H]3c4ccc(O)cc4CC[C@H]3[C@@H]1CCC2=O (stereo partly drawn) [Compound 3, 10-(3-hydroxy-17-oxo-estra-1,3,5(10)-trien-11β-yl)-2-(4,4,5,5,6,6,7,7,7-nonafluoroheptyl)decanoic acid] |  |  |  |  | Percent suppression (%) of the increase in the weight of the uterus [2]: 99%
7 | C[C@]12CC[C@@H]3c4ccc(O)cc4C[C@@H](CCCCCCCCC(CCCC(F)(F)C(F)(F)C(F)(F)C(F)(F)F)C(=O)O)[C@H]3[C@@H]1CC[C@@H]2O (single isomer, unassigned) [Control compound 2, 10-(3,17β-dihydroxyestra-1,3,5(10)-trien-7α-yl)-2-(4,4,5,5,6,6,7,7,7-nonafluoroheptyl)decanoic acid, reference compound] | 469.73 |  |  |  | 
8 | C[C@]12CC[C@@H]3c4ccc(O)cc4C[C@@H](CCCCCCCCC[S+]([O-])CCCC(F)(F)C(F)(F)F)[C@H]3[C@@H]1CC[C@@H]2O (stereo partly shown) [Faslodex] |  |  |  |  | Objective response rate and duration of response to breast cancer (breast cancer; clinical tests, versus a SERM drug and an aromatase inhibitor): superior to a SERM drug and an aromatase inhibitor; Efficacy against tamoxifen-resistant breast cancer (breast cancer; tamoxifen-resistant breast cancer): effective against tamoxifen-resistant breast cancer
